Experimental data as given in patent US8518710B2, “Photon reducing agents for fluorescence assays” (Life Technologies Corporation, priority 1997, dated 2013).

Test: Absorption maxima of dyes (Table 1)
Assay type: physicochemical

Molecule | Absorption maxima of dyes [nm]
O=C([O-])C1=NN(c2ccc(S(=O)(=O)[O-])cc2)C(=O)C1N=Nc1ccc(S(=O)(=O)[O-])cc1.[Na+].[Na+].[Na+] (centres unmarked) [Tartrazine] | 425
Acid Fuchsin | 546

Other lines, results leading:

Absorption maxima of dyes [nm] | Molecule
635 | CCN(CC)c1ccc(C(=C2C=CC(=[N+](CC)CC)C=C2)c2cc(O)c(S(=O)(=O)O)cc2S(=O)(=O)O)cc1 [Patent Blue]
607 | Cc1cc(-c2ccc(/N=N/c3c(S(=O)(=O)O)cc4cc(S(=O)(=O)O)cc(N)c4c3O)c(C)c2)ccc1/N=N/c1c(S(=O)(=O)O)cc2cc(S(=O)(=O)O)cc(N)c2c1O [Trypan Blue]
513 | Acid Red 37
